Measurements as given in US5567692A, “9-[(substituted glycyl) amido)]-6-demethyl-6-deoxytetracyclines” (priority 1995, dated 1996).
Structures can show the parent of a compound that is named as a salt.

Key:
Citrobacter diversus = experiment: MIC range, recent clinical and veterinary isolates; assay type: cell-based; details: Citrobacter koseri, 18 h; Citrobacter diversus, [10] isolates; read-out: MIC Range
Streptococcus pyogenes = experiment: MIC range, recent clinical and veterinary isolates; assay type: cell-based; details: 18 h, read-out: MIC Range
S. aureus UBMS 90-3 = experiment: MIC, agar dilution; assay type: cell-based; details: Staphylococcus aureus, UBMS903, 18 h
Moraxella catarrhalis = experiment: MIC range, recent clinical and veterinary isolates; assay type: cell-based; details: 18 h, [18] isolates, read-out: MIC Range
Anaerobic Gram(+)Cocci = experiment: MIC range, recent clinical and veterinary isolates; assay type: cell-based; details: 18 h; Anaerobic Gram(+)Cocci, [15] isolates; read-out: MIC Range
Serratia marcescens = experiment: MIC range, recent clinical and veterinary isolates; assay type: cell-based; details: 18 h, [10] isolates, read-out: MIC Range
[1] = test system: Escherichia coli (Veterinary); experiment: MIC range, recent clinical and veterinary isolates; assay type: cell-based; details: 18 h, [15] isolates
Proteus mirabilis = experiment: MIC range, recent clinical and veterinary isolates; assay type: cell-based; details: 18 h, read-out: MIC Range
Bacteroides fragilis = experiment: MIC range, recent clinical and veterinary isolates; assay type: cell-based; details: 18 h, [11] isolates
Escherichia coli = experiment: MIC range, recent clinical and veterinary isolates; assay type: cell-based; details: 18 h, read-out: MIC Range
[2] = test system: Staphylococcus aureus, (methicillin-resistant); experiment: MIC range, recent clinical and veterinary isolates; assay type: cell-based; details: 18 h, [15] isolates
[3] = test system: S. aureus UBMS 88-5 Tet M; experiment: microbe, parasite or virus in culture; assay type: cell-based; details: Staphylococcus aureus, UBMS885TETM, 18 h
Enterobacter aerogenes = experiment: MIC range, recent clinical and veterinary isolates; assay type: cell-based; details: Klebsiella aerogenes, 18 h; Enterobacter aerogenes, [10] isolates; read-out: MIC Range
[4] = test system: Staphylococcus Coagulase-negative, (methicillin-susceptible); experiment: MIC range, recent clinical and veterinary isolates; assay type: cell-based; details: 18 h, [14] isolates
[5] = test system: Salmonella choleraesuis (Veterinary); experiment: MIC range, recent clinical and veterinary isolates; assay type: cell-based; details: Salmonella enterica, 18 h, [15] isolates
Shigella spp. = experiment: MIC range, recent clinical and veterinary isolates; assay type: cell-based; details: 18 h, [14] isolates
S. aureus ATCC 29213 = experiment: MIC, agar dilution; assay type: cell-based; details: S. aureus ATCC 29213; dihydrochloride
[6] = test system: Enterococcus spp, (Vancomycin-resistant); experiment: MIC range, recent clinical and veterinary isolates; assay type: cell-based; details: 18 h, [8] isolates
E. coli UBMS 88-1 Tet B = experiment: microbe, parasite or virus in culture; assay type: cell-based; details: E. coli UBMS 88-1 Tet B
[7] = test system: E. coli MC 4100 TNIOC Tet B; experiment: microbe, parasite or virus in culture; assay type: cell-based; details: E. coli MC 4100 TNIOC Tet B
[8] = test system: Staphylococcus aureus strain Smith (tetracycline sensitive); experiment: Acute lethal infection in mice, S. aureus Smith; assay type: in vivo; details: mice, S. aureus Smith (Sens), 7 day survival, dihydrochloride, 10080 min
Enterococcus faecium = experiment: MIC range, recent clinical and veterinary isolates; assay type: cell-based; details: 18 h, read-out: MIC Range
[9] = test system: Staphylococcus Coagulase-negative, (methicillin-resistant); experiment: MIC range, recent clinical and veterinary isolates; assay type: cell-based; details: 18 h, [16] isolates
S. aureus IVES 2943 = experiment: MIC, agar dilution; assay type: cell-based; details: S. aureus IVES 2943; dihydrochloride
Providencia spp. = experiment: MIC range, recent clinical and veterinary isolates; assay type: cell-based; details: 18 h, read-out: MIC Range
E. faecalis ATCC 29212 = experiment: MIC, agar dilution; assay type: cell-based; details: E. faecalis ATCC 29212
S. aureus NEMC 8769 = experiment: MIC, agar dilution; assay type: cell-based
[10] = test system: tetracycline sensitive and resistant Gram-positive and Gram-negative bacteria; experiment: In vitro antibacterial evaluation, summary in words; assay type: cell-based; details: summary of Tables I, II and V, dihydrochloride
Streptococcus pneumoniae = experiment: MIC range, recent clinical and veterinary isolates; assay type: cell-based; details: 18 h, [10] isolates, read-out: MIC Range
[11] = test system: Bordetella bronchiseptica (Veterinary); experiment: MIC range, recent clinical and veterinary isolates; assay type: cell-based; details: 18 h; Bordetella bronchiseptica (Veterinary), [10] isolates; read-out: MIC Range
[12] = test system: S. aureus UBMS 90-2 Tet M; experiment: microbe, parasite or virus in culture; assay type: cell-based; details: S. aureus UBMS 90-2 Tet M; dihydrochloride
Proteus vulgaris = experiment: MIC range, recent clinical and veterinary isolates; assay type: cell-based; details: 18 h, [18] isolates, read-out: MIC Range
E. coli PRP1 Tet A = experiment: microbe, parasite or virus in culture; assay type: cell-based; details: dihydrochloride
E. coli BAJ9003 IMP MUT = experiment: microbe, parasite or virus in culture; assay type: cell-based; details: E. coli BAJ9003 IMP MUT
Clostridium spp. = experiment: MIC range, recent clinical and veterinary isolates; assay type: cell-based; details: 18 h, [9] isolates
E. coli J3272 Tet C = experiment: microbe, parasite or virus in culture; assay type: cell-based; details: dihydrochloride
Clostridium perfringens = experiment: microbe, parasite or virus in culture; assay type: cell-based; details: 18 h, read-out: MIC Range
[13] = test system: S. aureus UBMS 90-1 Tet M; experiment: microbe, parasite or virus in culture; assay type: cell-based; details: S. aureus UBMS 90-1 Tet M; dihydrochloride
the ribosome = experiment: Reversibility of binding: bacterial growth after washing of the organism; assay type: cell-based; details: bacterial growth resumes when the compound is removed by washing
From the text: Therefore, the ability of 9-[(N,N-dimethylglycyl)amido]-6-demethyl-6-deoxytetracycline to inhibit bacterial growth appears to be a direct consequence of its ability to inhibit protein synthesis at the ribosome level.

Bacteroides spp. = experiment: MIC range, recent clinical and veterinary isolates; assay type: cell-based; details: Bacteroides, 18 h, read-out: MIC Range
S. aureus IVES 1983 = experiment: MIC, agar dilution; assay type: cell-based; details: S. aureus IVES 1983; dihydrochloride

CN(C)CC(=O)Nc1ccc2c(c1O)C(=O)C1=C(O)[C@]3(O)C(=O)C(C(N)=O)=C(O)[C@@H](N(C)C)C3CC1C2 (stereo partly drawn) [CC, [4S-(4alpha,12aalpha)]-4-(Dimethylamino)-9-[[(dimethylamino)acetyl]amino]-1,4,4a,5,5a,6,11,12a-octahydro-3,10,12,12a-tetrahydroxy-1,11-dioxo-2-naphthacenecarboxamide dihydrochloride] showed an MIC (Citrobacter diversus) of 0.25 to 1 µg/mL, an MIC (Streptococcus pyogenes) of 0.06 to 0.12 µg/mL and an MIC (S. aureus UBMS 90-3) of 0.03 µg/mL. The MIC (Moraxella catarrhalis) was 0.06 to 0.12 µg/mL, the MIC (Anaerobic Gram(+)Cocci) was 0.015 to 0.12 µg/mL and the MIC (Serratia marcescens) was 2 to 8 µg/mL. It also gave an MIC [1] of 0.25 to 4 µg/mL, an MIC (Proteus mirabilis) of 0.12 to 2 µg/mL and an MIC (Bacteroides fragilis) of 0.25 to 1 µg/mL. The MIC (Escherichia coli) was 0.25 to 4 µg/mL, the MIC [2] was 0.12 to 4 µg/mL and the MIC [3] was 0.03 µg/mL. For the same compound, the MIC (Enterobacter aerogenes) was 0.25 to 1 µg/mL, the MIC [4] was 0.06 to 4 µg/mL and the MIC [5] was 0.5 to 8 µg/mL. It also gave an MIC (Shigella spp.) of 0.12 to 0.5 µg/mL, an MIC (S. aureus ATCC 29213) of under 0.015 µg/mL and an MIC [6] of 0.03 to 0.12 µg/mL. It also gave an MIC (E. coli UBMS 88-1 Tet B) of 0.25 µg/mL, an MIC [7] of 0.25 µg/mL and an ED50 ([8]; Intraveneous) of 0.46 mg/kg. For the same compound, the ED50 ([8]; Oral) was over 8 mg/kg, the MIC (Enterococcus faecium) was 0.06 to 0.5 µg/mL and the MIC [9] was 0.06 to 16 µg/mL. It also gave an MIC (S. aureus IVES 2943) of 0.5 µg/mL, an MIC (Providencia spp.) of 1 to 8 µg/mL and an MIC (E. faecalis ATCC 29212) of 0.03 µg/mL. For the same compound, the MIC (S. aureus NEMC 8769) was under 0.015 µg/mL, the “in vitro antibacterial activity (in words)” value [10] was “excellent in vitro activity” and the “in vitro antibacterial activity (in words)” value ([10]; listed as 9-[(N,N-dimethylglycyl)amido)]-6-demethyl-6-deoxytetracycline) was “potent in vitro antibacterial activity”. The MIC (Streptococcus pneumoniae) was 0.03 to 0.5 µg/mL, the MIC [11] was 0.06 to 0.12 µg/mL and the MIC [12] was 0.06 µg/mL. For the same compound, the MIC (Proteus vulgaris) was 0.06 to 1 µg/mL, the MIC (E. coli PRP1 Tet A) was 0.5 µg/mL and the MIC (E. coli BAJ9003 IMP MUT) was “no growth”. The MIC (Clostridium spp.) was 0.03 to 0.12 µg/mL, the MIC (E. coli J3272 Tet C) was 0.25 µg/mL and the MIC (Clostridium perfringens) was 0.03 to 2 µg/mL. The MIC [13] was 0.06 µg/mL, the “binding to its target (the ribosome), reversibility” value (the ribosome) was “binds reversibly” and the MIC (Bacteroides spp.) was 0.12 to 0.5 µg/mL. For the same compound, the MIC (S. aureus IVES 1983) was 0.5 µg/mL.
